From ChEMBL document CHEMBL1127251, “New neplanocin analogues. III. 6R-configuration is essential for the antiviral activity of 6-C-methyl-3-deazaneplanocin a's” (Bioorg Med Chem Lett, 1994)
≈ marks a conversion by molar mass, not a printed value.

Columns and labels:
Vero [1] = test: Cytotoxic effect on host cells during growth phase of virus in vero cell cultures using MTT method; assay type: functional, cell-based; settings: Chlorocebus sabaeus
Vero [2] = test: Cytotoxic effect on host cells during stationary phase of virus in vero cell cultures using MTT method; assay type: functional, cell-based; settings: Chlorocebus sabaeus
Vero [3] = test: In vitro anti-vesicular stomatitis virus activity in vero cell cultures; assay type: functional; settings: Chlorocebus sabaeus, read-out: ED50 (the source's name)
[4] = Ratio of cytotoxicity, IC50(growing) to antiviral activity (ED50) was determined; assay type: functional

| SMILES | IC50 (Vero [1]) [µg/mL] | IC50 (Vero [2]) [µg/mL] | EC50 (Vero [3]) [µg/mL] | Selectivity index [4] |
| --- | --- | --- | --- | --- |
| C[C@H](O)C1=C[C@@H](n2cnc3c(N)nccc32)[C@H](O)[C@@H]1O | > 100 | > 500 | > 100 | – |
| Nc1nccc2c1ncn2[C@@H]1C=C(CO)[C@@H](O)[C@H]1O | 0.55 (≈ 2.1 µM) | > 500 | 0.24 (≈ 0.915 µM) | 2.3 |
| Nc1ncnc2c1ncn2[C@@H]1C=C(CO)[C@@H](O)[C@H]1O [NEOPLANOCIN A] | 0.26 (≈ 0.988 µM) | 152 (≈ 577 µM) | 0.24 (≈ 0.912 µM) | 1.1 |
| C[C@@H](O)C1=C[C@@H](n2cnc3c(N)ncnc32)[C@H](O)[C@@H]1O | 2.2 (≈ 7.93 µM) | > 500 | 0.24 (≈ 0.866 µM) | 9.2 |
| C[C@@H](O)C1=C[C@@H](n2cnc3c(N)nccc32)[C@H](O)[C@@H]1O | 12 (≈ 43.4 µM) | > 500 | 1 (≈ 3.62 µM) | 12 |
| C[C@H](O)C1=C[C@@H](n2cnc3c(N)ncnc32)[C@H](O)[C@@H]1O | > 100 | > 500 | > 100 | – |
